Legend:
[1] = system: mammals; conditions: cited from earlier work
[2] = system: tobacco hornworm (Manduca sexta) larvae; test: Tobacco hornworm growth and developmental responses to feeding on diets containing the compounds; assay type: in vivo
Experimental: The compounds produced and described in Example 1 were then tested for pesticidal activity against the tobacco hornworm (Manduca sexta). The screening procedure for these tests began with the larval stage and continued through the pupal and adult stages and finally evaluated egg production. The studies thus permitted the evaluation of the effects of the compounds over several subsequent developmental stages in the total life cycle of the insect, giving estimates of acute toxicity (insecticidalor larvicidal activity) as well as prolonged or delayed effects on development (growth regulation) and reproduction (chemosterilization). The latter are of special importance in conjunction with the integrated pest management approach to insect control.
The test compounds were incorporated into the artificial diet of tobacco hornworm larvae and their subsequent growth and developmental responses were monitored using the following parameters: larval mortality including determination of LD50 values, rate of larval development and weight gain, percent pupation, pupal weight and degree of deformities, percent adult emergence and measures of reproductive capacity such as the number of developed ooctyes, fecundity and fertility. The protocol for the screening tests has been developed over a number of years by Dahlman et al., Comp. Biochem. Physiol. 51A, 33, (1975); Comp. Biochem. Physiol., 52A, 105 (1975); Ent. Exp. et Appl., 22, 123 (1977); Palumbo and D. L. Dahlman, J. Econ. Entomol. 71, 674 (1978); D. L. Dahlman, Ent. Exp. et Appl., 24, 327 (1978).
Each treatment used 15 newly ecdysed fifth-instar larvae. Death of larvae within a few hours to several days of initial exposure was considered to be acute toxicity. However, the compounds may reduce the maximum size attained by larvae and/or may retard growth so that larvae require additional time to attain their maximum size. Developmental parameters subsequent to the feeding stage also may be affected. […] Mortality may occur in the pupal stage or emerging adults may have wrinkled wings or other deformities. The number of eggs produced by treated females may be reduced and/or unfertile. Although acute toxicity is desirable in the control of any insect, the delayed effects which result in poor survival and reduced reproductive capacity are significant factors in the long-range program of pest management systems.
Continuous cultures of M. sexta are maintained according to the procedures of Yamamoto, J. Econ. Entomol., 62, p. 1427 (1969). Ingredients of the diet formulation include sugar, casein, wheat germ oil, cholesterol, salt mixture, yeast, vitamins, antioxidants and fungal inhibitors, such as ascorbic acid, sorbic acid, formaldehyde and methyl-p-benzoate. All are incorporated into a liquid agar base which, when poured into holding pans, solidifies to form an adequate substrate upon which the insect larvae feed. Nearly any test material can be uniformly incorporated into such a diet. Thus, exposure to experimental compounds can be evaluated during all or any part of the larval stage. In addition, chronic or long-term effects in subsequent life stages can also be monitored.
The results from these studies, in which the 1,2-diphenylaziridines of Example 1 were incorporated singly into the diet of M. sexta at a concentration of 5 mM are presented in the following Table I.

[3] = system: H. virescens larvae; test: Topical application to H. virescens larvae; assay type: in vivo, Heliothis virescens; conditions: within 48 hr
[4] = system: tobacco hornworm larvae (newly ecdysed fifth-instar); test: Topical application to tobacco hornworm larvae; assay type: in vivo, Manduca sexta
Experimental: The test compounds were dissolved either in acetone or hexane and applied to the integument of the test insect with a micro applicator. Newly ecdysed fifth-instar tobacco hornworm larvae weighing between 1-1.5 g were used and toxicity data were obtained in the same way as previously described.

[5] = system: H. virescens; test: Incorporation into H. virescens diet; assay type: in vivo, Heliothis virescens; conditions: as much as 20 mM in diet
Experimental: Compounds 1, 10, 11, 13 and 14 were incorporated into H. virescens diet in the same manner as M. Sexta. Diets containing as much as 20 mM of each compound had little effect on larval development time, pupal weight or time to adult emergence.

[6] = system: Salmonella typhimurium strains TA 98, TA 100, TA 1535, TA 1537, TA 1538, TA 1978; test: Ames assay (spot test), revertant colonies; assay type: cell-based
Experimental: This means that aziridine compounds, 1, 10, or 11, will not cause mutations in DNA arising from potential changes in frame shift and/or base pairing. Compounds 1, 10 and 11 were tested for mutagenic properties using the following experimental procedure.
Potential mutagenic and carcinogenic properties of the compounds were evaluated with standard Ames assay procedures (Ames et al, "Mutation Res.", 31, p. 347, 1975). This assay used strains of Salmonella typhimurium selected for sensitivity and specificity in being reverted from a histidine requirement back to prototrophy by a wide variety of mutagens. Potential changes in frameshift were evaluated using strains TA 98, TA 1537 and TA 1538, while changes in base pairing were detected using strains TA 100 and TA 1535. In addition, strain TA 1978 was used, in combination with TA 1538, to evaluate whether the agent killed bacteria by damage to DNA that could be repaired by this strain. Initially, the compounds were screened using the spot test, in which 1000 μgm of material dissolved in 10 μl of DNSO was applied to the middle of the plate.
Dose-response tests were not performed because the results were negative. All the tests were carried out in the presence and absence of an S9 rat liver preparation and contained a positive control (2-acetylaminofluorene,AAF) and a negative control (DMSO).

In the case of `O=P(N1CC1)(N1CC1)N1CC1` [tepa, tris(1-aziridinyl)-phosphine oxide], the “toxicity reported in the literature” value [1] is given as “carcinogenic and mutagenic properties”.
For `CC1CN1P(=O)(N1CC1C)N1CC1C` (stereo not shown) [metepa, tris(2-methyl-1-aziridinyl)phosphine oxide], the “toxicity reported in the literature” value [1] is given as “carcinogenic and mutagenic properties”.
With `Fc1ccc(N2CC2c2ccccc2F)cc1` (stereo not shown) [Compound 15] the “% Adult Emergence” value ([2]; 5 mM in diet) was 60%, the “% Malformed Adults” value ([2]; 5 mM in diet) was 0% and the “% Pupation” value ([2]; 5 mM in diet) was 67%. The “Days to Max Wt” value ([2]; 5 mM in diet) was 6.7 ± .4 days, the “Max Larval Wt” value ([2]; 5 mM in diet) was 8.04 ± .41 g and the “Mean No. of Eggs” value ([2]; 5 mM in diet) was 67 ± 42. For the same compound, the “No. of female Adults” value ([2]; 5 mM in diet) was 3, the “Total No. of Adults” value ([2]; 5 mM in diet, all tests began with 15 larvae) was 9 and the larvae killed ([3]; 62.5 μg/larva or 625 ppm topical, 100 mg larvae) was 60%. For the same compound, the larvae killed ([3]; 312 ppm topical) was 40%, the “size of surviving larvae” value ([4]; 125 μg/larvae) was “smaller than controls” and the mortality at 125 µg/larva ([4]; Manduca sexta, topical, 125 μg/larvae, during the entire 5th instar) was 20%. For the same compound, the mortality at 250 µg/larva ([4]; Manduca sexta, topical, 250 μg/larva, within 24 hr) was 100%.
For `Clc1ccccc1C1CN1c1ccc(Br)cc1` (stereo not shown) [Compound 1], the “% Adult Emergence” value ([2]; 1 mM in diet) was 100%, the “% Adults” value ([2]; 1 mM in diet) was 100% and the “% Malformed Adults” value ([2]; 1 mM in diet) was 0%. For the same compound, the “% Pupation” value ([2]; 1 mM in diet) was 100%, the “Days to Max Wt” value ([2]; 1 mM in diet) was 5.8 ± .2 days and the “Max Larval Wt” value ([2]; 1 mM in diet) was 7.94 g. For the same compound, the “Mean No. of Eggs” value ([2]; 1 mM in diet) was 32 ± 9, the “No. of female Adults” value ([2]; 1 mM in diet) was 10 and the “Total No. of Adults” value ([2]; 1 mM in diet) was 15. For the same compound, the “larval weight” value ([2]; 1 mM in diet) was “a slight reduction in larval weight”, the “mean number of eggs” value ([2]; 1 mM in diet, relative to controls) was “only half that of the controls” and the “% Adult Emergence” value ([2]; 2.5 mM in diet) was 100%. For the same compound, the “% Adults” value ([2]; 2.5 mM in diet) was 27%, the “% Malformed Adults” value ([2]; 2.5 mM in diet) was 50% and the “% Pupation” value ([2]; 2.5 mM in diet) was 27%. For the same compound, the “Days to Max Wt” value ([2]; 2.5 mM in diet) was 6.2 ± 0.7 days, the “Max Larval Wt” value ([2]; 2.5 mM in diet) was 4.99 g and the “Mean No. of Eggs” value ([2]; 2.5 mM in diet) was 8 ± 9. The “No. of female Adults” value ([2]; 2.5 mM in diet) was 2, the “Total No. of Adults” value ([2]; 2.5 mM in diet) was 4 and the “malformed adults” value ([2]; 2.5 mM in diet) was “a large percentage”. For the same compound, the “maximum larval weight and mean number of eggs” value ([2]; 2.5 mM in diet) was “reduced maximum larval weight and the mean number of eggs”, the “percent pupation” value ([2]; 2.5 mM in diet) was “lowered the percent pupation” and the “larval death (words in table)” value ([2]; 5 mM in diet) was “ALL DEAD BY SECOND DAY OF FEEDING”. For the same compound, the “larval mortality” value ([2]; 5 mM in diet) was “all or nearly all larvae died”, the symptoms of larvae ([2]; 5 mM in diet) was “extreme agitation of larvae, oral and anal expulsion of fluids and ultimately, death” and the “time until all larvae dead” value ([2]; 5 mM in diet) was no less than 48 h. For the same compound, the “oral activity” value ([2]; diet, Example 2) was “good oral activity”, the “larval mortality (acute toxicity)” value ([2]; in 24-72 hours, summary of Tables I and II) was 100% and the “time to 100% larval mortality” value ([2]; summary of Tables I and II) was 24 to 72 h. The “effect on larval development time, pupal weight or time to adult emergence” value [5] was “little effect”, the larvae killed ([4]; 1000 μg/larva (800 ppm), within 48 hr) was 70% and the “developmental effects” value ([4]; 400 ppm topical) was “delayed larval development, reduced maximum size and the number of resulting eggs”. The “Mean number of revertant colonies per plate, TA 98 +S9” value ([6]; strain TA 98, +S9) was 44.0 colonies per plate, the “Mean number of revertant colonies per plate, TA 98 -S9” value ([6]; strain TA 98, -S9) was 32.7 colonies per plate and the “Mean number of revertant colonies per plate, TA 100 +S9” value ([6]; strain TA 100, +S9) was 61.7 colonies per plate. For the same compound, the “Mean number of revertant colonies per plate, TA 100 -S9” value ([6]; strain TA 100, -S9) was 25.3 colonies per plate, the “Mean number of revertant colonies per plate, TA 1535 +S9” value ([6]; strain TA 1535, +S9) was 15.0 colonies per plate and the “Mean number of revertant colonies per plate, TA 1535 -S9” value ([6]; strain TA 1535, -S9) was 17.3 colonies per plate. For the same compound, the “Mean number of revertant colonies per plate, TA 1537 +S9” value ([6]; strain TA 1537, +S9) was 13.3 colonies per plate, the “Mean number of revertant colonies per plate, TA 1537 -S9” value ([6]; strain TA 1537, -S9) was 7.5 colonies per plate and the “Mean number of revertant colonies per plate, TA 1538 +S9” value ([6]; strain TA 1538, +S9) was 26.7 colonies per plate. The “Mean number of revertant colonies per plate, TA 1538 -S9” value ([6]; strain TA 1538, -S9) was 12.0 colonies per plate, the “Mean number of revertant colonies per plate, TA 1978 +S9” value ([6]; strain TA 1978, +S9) was 189.0 colonies per plate and the “Mean number of revertant colonies per plate, TA 1978 -S9” value ([6]; strain TA 1978, -S9) was 207.3 colonies per plate. The “mutagenicity” value ([6]; with and without S9 / mammalian liver enzymes) was “not mutagenic”.

Reference: patent US4582827A, “Pesticidal diphenylaziridines” (priority 1983, dated 1986)
